Each structure is given as a SMILES string. Where two headings read alike, the source gives them in different places.

From patent publication US20100063085A1, “METHOD OF TREATING LEARNING IMPAIRMENT IN DOWN'S SYNDROME SUBJECTS” (University Court of The University of Dundee, priority 2008, published 2010) come the findings set out here.

Holding throughout (format): biochemical
One test has as its system PKBΔph. Put plainly: PKBΔph 33P kinase assay. Here is the method: (§1) All assays (25.5 μl) were carried out at room temperature (21° C.) and were linear with respect to time and enzyme concentrations under the conditions used. Assays were performed for 30 minutes except assays for LCK and PKB which were performed for 15 minutes using Multidrop Micro reagent dispensers (Thermo Electron Corporation, Waltham, Mass. 02454, USA) in a 96-well format. The concentration of […] [γ-^33P] ATP (800 cpm/pmol) in the assays was one of three concentrations (5, 20 or 50 μM) in order to be at or below Km for ATP for the enzyme. Assays were initiated with MgATP and stopped by addition of 5 μl of 0.5M orthophosphoric acid. Assays were then harvested onto P81 filterplates using a unifilter harvester (PerkinElmer, Boston, Mass. 02118, USA), with a wash buffer of 50 mM orthophosphoric acid. Filterplates were then air dried overnight. 10 μl of Microscint O was added per well prior to counting for radioactivity.

Another test concerns the target T1, DYRK1a (Homo sapiens, UniProt Q13627).
T1 construct: made in house
Put plainly: biochemical. As to conditions: for remaining activity at 1 µM / remaining activity at 10 µM: read-out: DYRK1a activity as percentage of control without inhibitor. As for the experimental part: DYRK1A (5-20 mU of diluted in 50 mM Tris pH 7.5, 0.1 mM EGTA) was assayed against Woodtide ([…]) in a final volume of 25.5 μl containing 50 mM Tris pH 7.5, 0.1 mM EGTA, 350 uM substrate peptide, 10 mM magnesium acetate and 0.5 μl inhibitor and incubated at room temperature for 5 mins, followed by the addition of 0.05 mM [33P-gamma-ATP] (50-1000 cpm/pmole) and incubated for 30 mins at room temperature. Assays were stopped by addition of 5 μl of 0.5 M (3%) orthophosphoric acid then harvested onto P81 Unifilter plates with a wash buffer of 50 mM orthophosphoric acid. Filterplates were then air dried overnight. 10 μl of Microscint O was added per well prior to counting for radioactivity.

The target in another test is SAPK2a/p38 (Homo sapiens, UniProt Q16539). Put plainly: SAPK2a/p38 33P kinase assay. Particulars: read-out: SAPK2a/p38 activity as percentage of control without inhibitor. As for the experimental part:
as §1
(§2) MKK1, JNK/SAPK1c, SAPK2a/p38, SAPK2b/p38β2, SAPK3/p38γ, SAPK4/p38δ, MAPK2/ERK2, MAPKAP-K1β, MAPKAP-K2, MSK1, PRAK, PKA, PKCα, PDK1, SGK, p70S6K, GSK3β, ROCK-II, PRK2, AMPK, CHK1, CHK2, CK2, PHK, LCK, were assayed according to Davies et al., (Davies, S. P., Reddy, H., Caivano, M. and Cohen, P. Biochem. J. 351, 95-105, 2000.
(§3) CSK and CDK2/cyclinA, were assayed according to Bain et al. (Bain J, McLauchlan H, Elliott M, Cohen P. Biochem J. 371, 199-204, 2003., except that ATP concentrations were either 5, 20 or 50 micromolar so that they were at or below the Km for ATP. The ATP concentrations used were as follows, 5 μM for assays of MKK1, SAPK3, SAPK4, GSK3β, PRK2 CK2 20 μm for assays of JNK, SAPK2β, MAPKAP-K2, MSK1, PRAK, PKA, […], PDK1, SGK, p70S6K, ROCK-II, CHK1, CHK2, CSK, CDK2, and 50 μM for assays of SAPK2a, MAPK2/ERK2, AMPK, LCK, PHK and MAPKAP-K1β.

A further test deals with PKCa (Homo sapiens, UniProt P17252). Put plainly: PKCa 33P kinase assay. As to conditions: read-out: PKCa activity as percentage of control without inhibitor; for remaining activity at 1 µM: inhibitor 1 μM; for remaining activity at 10 µM: inhibitor 10 μM. Here is the method:
as §1, §2, §3

A further test addresses Lck (Homo sapiens, UniProt P06239). Put plainly: Lck 33P kinase assay. As to conditions: read-out: Lck activity as percentage of control without inhibitor; for remaining activity at 1 µM: inhibitor 1 μM. As for the experimental part: as §1, with “Assays” for “All assays (25.5 μl) were carried out at room temperature (21° C.) and were linear with respect to time and enzyme concentrations under the conditions used. Assays”
as §2, §3

In another test the target is T2, CHK1 (Homo sapiens, UniProt O14757).
T2 sequence (O14757 1-476): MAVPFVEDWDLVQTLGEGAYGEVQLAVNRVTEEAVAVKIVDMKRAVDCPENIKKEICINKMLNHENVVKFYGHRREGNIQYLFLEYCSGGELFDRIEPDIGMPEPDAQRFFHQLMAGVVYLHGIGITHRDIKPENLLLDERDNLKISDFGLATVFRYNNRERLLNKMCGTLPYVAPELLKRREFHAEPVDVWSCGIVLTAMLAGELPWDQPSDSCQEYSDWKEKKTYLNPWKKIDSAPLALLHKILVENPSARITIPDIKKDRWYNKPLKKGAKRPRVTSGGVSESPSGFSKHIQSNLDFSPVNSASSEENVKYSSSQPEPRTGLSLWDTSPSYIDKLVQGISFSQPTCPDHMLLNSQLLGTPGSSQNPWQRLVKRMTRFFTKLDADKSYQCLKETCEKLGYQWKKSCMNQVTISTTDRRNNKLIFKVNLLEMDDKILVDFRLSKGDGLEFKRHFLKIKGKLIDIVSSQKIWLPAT
Put plainly: CHK1 33P kinase assay. Particulars: read-out: CHK1 activity as percentage of control without inhibitor. As for the experimental part: as §1, §2, §3

For another test, the target named is MAPK2/ERK2 (Homo sapiens, UniProt P28482). The test is described as follows: MAPK2/ERK2 33P kinase assay. Particulars: read-out: MAPK2/ERK2 activity as percentage of control without inhibitor. As for the experimental part: as §1, §2, §3
Chain of MAPK2/ERK2 (P28482 whole entry): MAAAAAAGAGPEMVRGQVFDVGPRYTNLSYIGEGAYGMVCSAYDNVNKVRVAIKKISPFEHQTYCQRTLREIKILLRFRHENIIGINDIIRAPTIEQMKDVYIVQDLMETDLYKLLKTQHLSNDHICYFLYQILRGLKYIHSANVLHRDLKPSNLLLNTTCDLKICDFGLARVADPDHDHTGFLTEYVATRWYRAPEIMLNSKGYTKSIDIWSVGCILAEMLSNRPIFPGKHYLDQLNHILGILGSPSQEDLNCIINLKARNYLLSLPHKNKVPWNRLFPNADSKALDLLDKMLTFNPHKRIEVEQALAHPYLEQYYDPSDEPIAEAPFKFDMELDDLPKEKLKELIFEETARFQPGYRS
The target in another test is p70 S6K (Homo sapiens, UniProt P23443). The test is described as follows: p70 S6K 33P kinase assay. As to conditions: read-out: p70 S6K activity as percentage of control without inhibitor; for remaining activity at 1 µM: inhibitor 1 μM; for remaining activity at 10 µM: inhibitor 10 μM. Here is the method:
as §1, §2, §3

Chain of SAPK2a/p38 (Q16539 whole entry): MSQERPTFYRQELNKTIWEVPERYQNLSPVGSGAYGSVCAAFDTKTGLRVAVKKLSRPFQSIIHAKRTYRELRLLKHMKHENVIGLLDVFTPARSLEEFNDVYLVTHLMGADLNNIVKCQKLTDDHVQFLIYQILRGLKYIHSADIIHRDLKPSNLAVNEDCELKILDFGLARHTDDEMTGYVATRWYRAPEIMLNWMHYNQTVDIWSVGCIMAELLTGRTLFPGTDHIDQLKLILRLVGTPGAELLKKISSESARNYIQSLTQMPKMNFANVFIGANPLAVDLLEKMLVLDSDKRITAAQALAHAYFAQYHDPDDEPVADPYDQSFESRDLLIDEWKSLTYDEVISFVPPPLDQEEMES
Chain of Lck (P06239 whole entry, species assumed): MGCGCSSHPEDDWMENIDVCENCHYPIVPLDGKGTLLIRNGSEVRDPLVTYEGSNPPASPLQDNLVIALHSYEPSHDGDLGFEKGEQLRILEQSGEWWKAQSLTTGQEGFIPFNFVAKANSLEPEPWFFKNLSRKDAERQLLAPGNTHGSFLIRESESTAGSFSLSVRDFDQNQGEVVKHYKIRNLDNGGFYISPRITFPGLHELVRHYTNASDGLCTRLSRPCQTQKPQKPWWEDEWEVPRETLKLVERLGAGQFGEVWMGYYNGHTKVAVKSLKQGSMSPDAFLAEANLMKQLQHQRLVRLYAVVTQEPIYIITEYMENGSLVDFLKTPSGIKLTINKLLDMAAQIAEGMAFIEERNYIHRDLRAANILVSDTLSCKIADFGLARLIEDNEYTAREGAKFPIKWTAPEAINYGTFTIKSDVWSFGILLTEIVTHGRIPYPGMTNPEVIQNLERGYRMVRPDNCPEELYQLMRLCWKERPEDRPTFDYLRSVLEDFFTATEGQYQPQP
Chain of p70 S6K (P23443 whole entry): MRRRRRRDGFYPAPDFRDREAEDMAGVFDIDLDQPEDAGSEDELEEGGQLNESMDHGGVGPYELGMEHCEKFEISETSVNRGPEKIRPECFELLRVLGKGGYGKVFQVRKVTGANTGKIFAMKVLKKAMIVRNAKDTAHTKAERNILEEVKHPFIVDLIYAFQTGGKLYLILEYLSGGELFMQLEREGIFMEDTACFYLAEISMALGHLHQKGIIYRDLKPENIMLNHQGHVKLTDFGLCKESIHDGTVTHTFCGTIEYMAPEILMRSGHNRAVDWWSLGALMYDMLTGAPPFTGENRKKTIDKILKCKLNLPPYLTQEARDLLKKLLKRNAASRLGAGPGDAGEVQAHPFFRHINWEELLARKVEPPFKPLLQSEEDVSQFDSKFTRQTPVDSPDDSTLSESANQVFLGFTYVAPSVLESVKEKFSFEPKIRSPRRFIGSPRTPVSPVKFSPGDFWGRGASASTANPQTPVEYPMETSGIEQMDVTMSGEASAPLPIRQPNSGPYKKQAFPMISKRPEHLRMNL

Regarding `COc1ccc2c3c([nH]c2c1)C(C)=NCC3` [Harmaline], the entries for the “PKBΔph activity as percentage of control without inhibitor” value in the test with PKBΔph (inhibitor 1 μM) and in the test with PKBΔph (inhibitor 10 μM) were 80% and 98%, respectively. Also, the remaining activity at 1 µM on DYRK1a (inhibitor 1 μM) turned out to be 78%; on SAPK2a/p38, 89%; at PKCa, 88%; at Lck, 77%; on CHK1, 78%; on MAPK2/ERK2 (inhibitor 1 μM) it was 80%. Further, the remaining activity at 1 µM at p70 S6K came to 71%. Also, the remaining activity at 10 µM at DYRK1a (inhibitor 10 μM) came out at 8%; at SAPK2a/p38, 86%; at PKCa, 81%; on Lck (inhibitor 10 μM), 87%; at CHK1, 67%; on MAPK2/ERK2 (inhibitor 10 μM), 89%. In addition, the remaining activity at 10 µM at p70 S6K was 83%.

As for `CC1=NCCc2c1[nH]c1cc(O)ccc21` [Harmalol], the “PKBΔph activity as percentage of control without inhibitor” value in the test with PKBΔph (inhibitor 1 μM) was found to be 92%; with PKBΔph (inhibitor 10 μM), 58%. For the same compound, the remaining activity at 1 µM at DYRK1a (inhibitor 1 μM) turned out to be 25%; at SAPK2a/p38 (inhibitor 1 μM), 95%; on PKCa, 109%; at Lck, 85%; at CHK1 (inhibitor 1 μM) it was 93%; at MAPK2/ERK2 (inhibitor 1 μM), 88%. Also, the remaining activity at 1 µM at p70 S6K was found to be 95%. Also, the remaining activity at 10 µM came to 3% at DYRK1a (inhibitor 10 μM); 74% on SAPK2a/p38 (inhibitor 10 μM); 78% at PKCa; 68% on Lck (inhibitor 10 μM); 81% at CHK1 (inhibitor 10 μM); 85% on MAPK2/ERK2 (inhibitor 10 μM). The remaining activity at 10 µM on p70 S6K was 69%.

Consider `COc1ccc2c(c1)[nH]c1c(C)nccc12` [Harmine], for which the “PKBΔph activity as percentage of control without inhibitor” value with PKBΔph (inhibitor 1 μM) and in the test with PKBΔph (inhibitor 10 μM) was 107% in each case. The “inhibition of DYRK1a, result in words” value on DYRK1a was “very potent and specific inhibitor of DYRK1a”. The remaining activity at 1 µM on DYRK1a is 4%; on SAPK2a/p38, 95%; at PKCa, 96%; on CHK1, 86%; on MAPK2/ERK2, 98%; at p70 S6K, 90%. Further, the remaining activity at 10 µM at DYRK1a came out at 1%; at SAPK2a/p38 it was 81%; at PKCa it was 101%; on Lck, 91%; at CHK1, 86%; at MAPK2/ERK2 it was 89%. Besides, the remaining activity at 10 µM on p70 S6K worked out at 93%.
